In patent publication US11247998B2, “Piperazine heteroaryl derivative, preparation method therefor and use of same in medicine” (priority 2017, dated 2022):

What was measured:
[1] = Pharmacokinetics assay in rats after intragastrical administration (LC/MS/MS of plasma); type: in vivo; settings: both sexes, rat, plasma, po, SD rats, 2 mg/kg
Experimental: Pharmacokinetics assay of the compound of the present invention
Rats were used as test animals. The drug concentration in plasma at different time points was determined by LC/MS/MS method after intragastrical administration of the compound of Example 1, the compound of Example 2, the compound of Example 4, the compound of Example 6, the compound of Example 7, the compound of Example 11, the compound of Example 39, the compound of Example 42, the compound of Example 44, the compound of Example 45 and the compound of Example 47 to rats. The pharmacokinetic behavior and property of the compound of the present invention were studied and evaluated in rats.
44 Healthy adult SD rats (half male and half female, 4 rats/group) were purchased from Shanghai Jiesijie Laboratory Animal Co., LTD, with Certificate No.: SCXK (Shanghai) 2013-0006.
A certain amount of the test compound was weighed, and added with 5% by volume of DMSO, 5% by volume of tween 80 and 90% by volume of normal saline to prepare a 0.2 mg/mL colorless, clear and transparent solution.
After an overnight fast, SD rats were administrated intragastrically with the test compound at an administration dose of 2.0 mg/kg and an administration volume of 10.0 mL/kg.
The rats were intragastrically administrated the compound of Example 1, the compound of Example 2, the compound of Example 4, the compound of Example 6, the compound of Example 7, the compound of Example 11, the compound of Example 39, the compound of Example 42, the compound of Example 44, the compound of Example 45 and the compound of Example 47. 0.1 ml of blood was taken from the orbit before administration and at 0.5, 1.0, 2.0, 4.0, 6.0, 8.0, 11.0 and 24.0 hours after administration. The samples were stored in heparinized tubes, and centrifuged for 10 minutes at 3500 rpm to separate the blood plasma. The plasma samples were stored at −20° C. The rats were fed two hours after administration.
The content of the test compound in the plasma of rats after intragastrical administration of the test compound at different concentrations was determined: 25 μL of rat plasma at each time after administration was taken, added with 40 μL of the internal standard solution of camptothecin (100 ng/mL) and 200 μL of acetonitrile, vortex-mixed for 5 minutes, and centrifuged for 10 minutes (4000 rpm). 0.2 μL of the supernatant was taken from the plasma samples for LC/MS/MS analysis.

[2] = tested on: HBV DNA replication in HepG2.2.15 cells; experiment: In vitro anti-HBV activity test (quantitative assay of intracellular HBV DNA), HepG2.2.15 cells, quantitative PCR; type: cell-based, hepatitis B virus (HBV); settings: Hepatitis B virus, HBV DNA by quantitative PCR; for EC50: compound treatment Day 2 to Day 8; for Emax: read-out: Emax (effect value of the compound to maximally inhibit HBV DNA replication)
Experimental: In vitro anti-HBV activity test of the compound of the present invention (quantitative assay of intracellular HBV DNA)
HepG2.2.15 cell is a stable expression cell line that has integrated HBV genome.
Virus particles containing HBV DNA can be synthesized by replication, transcription and encapsidation in the cells, and then secreted. In this study, the quantitative analysis of HBV DNA produced by HepG2.2.15 in vitro proliferation was carried out by quantitative PCR method, thereby determining the activity of the compound of the present invention on inhibiting the HBV DNA replication by inhibiting the assembly of HBV capsid protein.
HepG2.2.15 cells were cultured in DMEM/high glucose medium (10% FBS, […] G418) and passaged every three days. On the day of the experiment, a cell suspension was prepared with fresh cell culture medium, and incubated in a 96-well plate (Corning, #3599) at 40,000 cells/well, at 5% carbon dioxide, 37° C. On Day 2, the compound was dissolved in pure DMSO at a concentration of 20 mM, and then the first concentration of 2 mM was formulated with DMSO, and diluted in 4-fold concentration gradient to 8 concentrations. A control well was added with 90 μl of DMSO. The compound solution was diluted 200-fold with DMEM/high glucose medium. The cell culture plate inoculated on Day 1 was taken out. The medium in the wells was removed by a negative pressure suction device, and the formulated medium containing the compound at each concentration was added respectively to each well at 200 μl/well. The plate was incubated at 37° C. for 72 hours. On Day 5, the medium of the cultured cells was replaced with fresh medium containing the same compound in the same way as Day 2, and then the plate was incubated at 37° C. for 72 hours. On Day 8, the cell culture plate was taken out, centrifuged at 300 g for 3 minutes, and the culture supernatant was collected at 200 μl/well. HBV DNA was extracted from the cell culture supernatant with Qiagen automatic DNA extraction device, and the specific method referred to the instructions of the reagents and instruments. Finally, the extracted DNA was eluted with DNA elution buffer at 100 μl/well. The extracted DNA was subjected to quantitative PCR analysis of HBV DNA using Hepatitis B virus nucleic acid quantitative detection kit (Triplex International Biosciences Co., Ltd.), and the specific method referred to the instruction of the kit. The quantitative standard curve was obtained with the standard sample provided in the kit, and the experiments were performed in parallel. Quantitative conversion of each sample was carried out according to the standard curve. Finally, the EC50 value of the compound was calculated with Graphpad Prism software according to each concentration of the compound and the corresponding DNA value.
The in vitro activity of the compound of the present invention on inhibiting the HBV DNA replication by inhibiting the assembly of HBV capsid protein was determined by the above experiment.

[3] = Effect on in vitro proliferation of HepG2 cells (CellTiter-Glo); type: cell-based; settings: human; HepG2 cells, 72 hours, CellTiter-Glo
Experimental: Test Example 2. Effect of the Compound of the Present Invention on In Vitro Proliferation of HepG2 Cells
HepG2 cells in logarithmic growth phase were taken and digested with trypsin to prepare a cell suspension, which was incubated in a 96-well plate (transparent bottom white 96-well plate, PerkinElmer) at 6,000 cells/well, at 5% carbon dioxide, 37° C. for 16-20 hours. On Day 2, the compound was dissolved in pure DMSO at a concentration of 20 mM. The compound was diluted in 3-fold concentration gradient using an automatic pipetting station (Bravo), 8 concentration points for each compound, and the control well was DMSO. The compound formulated in DMSO at each concentration point was diluted 200-fold with EMEM (containing 10% FBS) medium. The cell culture plate inoculated on Day 1 was taken out. The medium in the wells was removed by a negative pressure suction device, and the formulated medium containing the compound at each concentration was added respectively to each well at 100 μl/well. The plate was incubated at 37° C. for 72 hours. On Day 5, the 96-well cell culture plate was taken out, and freshly formulated CellTiter Glo was added to each well at 100 μl/well. The 96-well plate was left to stand for 5-10 minutes, the bottom was then sealed with a white bottom sealing film (PerkinElmer). The plate was placed in the microplate reader to measure the luminescence signal. The CC50 value of the compound was calculated with Graphpad Prism software according to each concentration of the compound and the corresponding proliferation inhibition signal value.
The inhibition effect of the compound of the present invention on in vitro proliferation of HepG2 cells was determined by the above experiment.

Row | SMILES | EC50 [2] [nM] | Emax [2] [%] | CC50 at 72 h [3] [nM] | also measured
1 | C[C@@H](NC(=O)c1ncn2c1CN(C(=O)Nc1cc(F)c(F)c(F)c1)CC2)C(F)(F)F [Example 1, (R)—N^7-(3,4,5-Trifluorophenyl)-N^1-(1,1,1-trifluoropropan-2-yl)-5,6-dihydroimidazo[1,5-α]pyrazine-1,7(8H)-dicarboxamide] | – | – | – | Vd/F ([1]; read-out: Apparent distribution volume Vz/F): 2.36 ± 0.245 L/kg; AUC ([1]; read-out: Area under curve AUC): 14400 ± 3010 ng·h/mL; bioavailability ([1]; read-out: Bioavailability (%) F %): 119%; CL/F ([1]; read-out: Clearance CLz/F): 2.39 ± 0.5 mL/min/kg; half-life ([1]; read-out: Half-life T1/2 (converted)): 11.7 ± 2.3 h; Cmax ([1]; read-out: Plasma concentration Cmax): 640 ± 102 ng/mL; MRT ([1]; read-out: Residence time MRT): 17.4 ± 3 h
2 | C[C@H]1Cn2ncc(C(=O)NC(C)(C)C)c2CN1C(=O)Nc1ccc(F)c(F)c1 [Example 8, (S)—N^3-(Tert-butyl)-N^5-(3,4-difluorophenyl)-6-methyl-6,7-dihydropyrazolo[1,5-α]pyrazine-3,5(4H)-dicarboxamide] | 15 | 100 | > 100000 | –
3 | C[C@@H](NC(=O)c1cnn2c1CN(C(=O)Nc1ccc(F)c(C#N)c1)CC2)C(F)(F)F [Example 9, (R)—N^5-(3-Cyano-4-fluorophenyl)-N^3-(1,1,1-trifluoropropan-2-yl)-6,7-dihydropyrazolo[1,5-α]pyrazine-3,5(4H)-dicarboxamide] | 28 | 100 | > 100000 | –
4 | C[C@H]1Cn2ncc(C(=O)NC(C)(C)C)c2CN1C(=O)Nc1cc(F)c(F)c(F)c1 [Example 10, (S)—N^3-(Tert-butyl)-6-methyl-N^5-(3,4,5-trifluorophenyl)-6,7-dihydropyrazolo[1,5-α]pyrazine-3,5(4H)-dicarboxamide] | 29 | 100 | > 100000 | –
5 | C[C@H]1Cn2cnc(C(=O)NC(C)(C)C)c2CN1C(=O)Nc1ccc(F)c(F)c1 [Example 12, (S)—N^1-(Tert-butyl)-N^7-(3,4-difluorophenyl)-6-methyl-5,6-dihydroimidazo[1,5-α]pyrazine-1,7-(8H)-dicarboxamide] | 32 | 100 | > 100000 | –
6 | C[C@H]1Cn2cnc(C(=O)NC3(C)COC3)c2CN1C(=O)Nc1cc(F)c(F)c(F)c1 [Example 13, (S)-6-Methyl-N^1-(3-methyloxetan-3-yl)-N^7-(3,4,5-trifluorophenyl)-5,6-dihydroimidazo[1,5-α]pyrazine-1,7(8H)-dicarboxamide] | 35 | 100 | > 100000 | –
7 | C[C@H]1Cn2ncc(C(=O)NC3(C)COC3)c2CN1C(=O)Nc1cc(F)c(F)c(F)c1 [Example 14, (S)-6-Methyl-N^3-(3-methyloxetan-3-yl)-N^5-(3,4,5-trifluorophenyl)-6,7-dihydropyrazolo[1,5-a]pyrazine-3,5(4H)-dicarboxamide] | 44 | 100 | > 100000 | –
8 | C[C@H]1Cn2ncc(C(=O)N[C@H](C)C(F)(F)F)c2CN1C(=O)Nc1ccc(F)c(C#N)c1 [Example 15, (S)—N^5-(3-Cyano-4-fluorophenyl)-6-methyl-N^3-((R)-1,1,1-trifluoropropan-2-yl)-6,7-dihydropyrazolo[1,5-α]pyrazine-3,5(4H)-dicarboxamide] | 29 | 100 | > 100000 | –
9 | C[C@H]1Cn2ncc(C(=O)N[C@H](C)C(F)(F)F)c2CN1C(=O)Nc1cc(F)nc(F)c1 [Example 16, (S)—N^5-(2,6-Difluoropyridin-4-yl)-6-methyl-N^3-((R)-1,1,1-trifluoropropan-2-yl)-6,7-dihydropyrazolo[1,5-α]pyrazine-3,5(4H)-dicarboxamide] | 50 | 100 | > 100000 | –
10 | C[C@@H](NC(=O)c1nnn2c1CN(C(=O)Nc1cc(F)c(F)c(F)c1)CC2)C(F)(F)F [Example 17, (R)—N^5-(3,4,5-Trifluorophenyl)-N^3-(1,1,1-trifluoropropan-2-yl)-6,7-dihydro-[1,2,3]triazolo[1,5-α]pyrazine-3,5(4H)-dicarboxamide] | 70 | 80 | > 100000 | –
11 | Cc1cc(NC(=O)N2Cc3c(C(=O)N[C@H](C)C(F)(F)F)nnn3C[C@@H]2C)ccc1F [Example 40, (S)—N^5-(4-Fluoro-3-methylphenyl)-6-methyl-N^3-((R)-1,1,1-trifluoropropan-2-yl)-6,7-dihydro-[1,2,3]triazolo[1,5-α]pyrazine-3,5(4H)-dicarboxamide] | 20 | 100 | > 100000 | –
12 | C[C@H](NC(=O)c1ncn2c1CN(C(=O)Nc1ccc(F)c(F)c1)[C@@H](C)C2)C(F)(F)F [Example 41, (S)—N^7-(3,4-Difluorophenyl)-6-methyl-N^1—((S)-1,1,1-trifluoropropan-2-yl)-5,6-dihydroimidazo[1,5-α]pyrazine-1,7(8H)-dicarboxamide] | 24 | 100 | > 100000 | –
13 | C[C@H]1Cn2cnc(C(=O)N3CCCC3)c2CN1C(=O)Nc1ccc(F)c(F)c1 [Example 59, (S)—N-(3,4-Difluorophenyl)-6-methyl-1-(pyrrolidine-1-carbonyl)-5,6-dihydroimidazo[1,5-α]pyrazine-7(8H)-carboxamide, reference compound] | 5270 | 90 | – | –
